Tests used:
Assay type in all cases: in vivo
Erypsiphe graminis = experiment: Fungicidal and bactericidal effect on wheat powdery mildew (spray on potted wheat, then inoculation); conditions: 500 ppm, spray on wheat (Norin No.61), diseased leaf area after 7 to 10 days
Description: Compound (III) disclosed in JP-A-64-25763, tebufenpyrade and various compounds in accordance with the present invention were individually prepared into preparations in the same manner as in Formulation 3 The resulting preparations were diluted to given concentrations and sprayed on the stems and leave of a wheat plant (species: Norin No.61) at the one-leaf to 2-leaf stage as grown in a pot of a 6-cm diameter, at a ratio of 10-ml volume per one pot. After drying the chemical preparations in air, the wheat plant was exposed to the spore collected from wheat leave afflicted with Erypsiphe graminis as the microorganism causing wheat powdery mildew, for inoculation. Then, the plant was left to stand alone in a green house for 7 to 10 days.
Evaluation was carried out follows. The ratio of the diseased area of each leaf was examined to calculate the control ratio according to the following formula. The results are shown in Table 3 (in the table, Compound Nos. correspond to Compound Nos. in Table-1.) • Control ratio (%) • =[(mean ratio of diseased areas in non-treated lot) • −(mean ratio of diseased areas in treated lot)]× • ×100
/ (mean ratio of diseased areas in non-treated lot)

Puccinia recondita = experiment: Fungicidal and bactericidal effect on wheat rust (spray on potted wheat seedling, then inoculation); conditions: 500 ppm, spray on wheat seedling (Norin No.61), diseased leaf area after 7 days
Description: Compound (III) disclosed in JP-A-64-25763 and various compounds in accordance with the present invention were individually prepared into preparations in the same manner as in Preparation 3. The resulting preparations were diluted to given concentrations and sprayed on the stems and leave of a wheat seedling (species: Norin No.61) at the one-leaf to 2-leaf stage as grown in a pot of a 6-cm diameter, at a ratio of 10-ml volume per one pot. After drying the chemical preparations in air, a spore suspension prepared by grinding the spore collected from wheat leave afflicted with Puccinia recondita as the microorganism causing wheat rust was sprayed on the wheat plant, for inoculation. Then, the plant was left to stand alone in a moist chamber at 22° C. for 15 hours. Subsequently, the plant was left to stand in a water pool in a green house for 7 days.
Evaluation was carried out by examining the ratio of the diseased area of each leaf to calculate the control ratio by the same method as in Test Example 1.
The results are shown in Table 4 (in the table, Compound Nos. correspond to Compound Nos, in Table-1.)

[1] = test system: 3rd instar Spodoptera litura larvae; experiment: Effect on larvae of Spodoptera litura (cabbage leaf dip); conditions: foliar, 120 h, cabbage leaf immersed, 25° C., five days, agonizing insect counted as 0.5 death, read-out: Insecticide Activity (%)
Description: Compound (III) disclosed in JP-A-64-25763 and various compounds in accordance with the present invention were individually prepared into insecticide preparations according to the formulation of Formulation Example 1. The resulting insecticides of the present invention (hydrates) were diluted with water, where chopped cabbage leave (a diameter of 6 cm) were then immersed for one minute. After immersion and subsequent drying in air, the cabbage leave were placed in a plastic cup (inner diameter of 7 cm), where five larvae each of 3rd instar Spodoptera litura were left (twice in duplicate per one concentration). The plastic cup was kept in a thermostat at 25° C. Five days after the larvae were left in the plastic cup, the death and agony of these larvae were examined, to calculate the insecticide activity (%) while an agonizing insect was counted as 0.5 insect death. The results are shown in Table 5 (in the table, Compound Nos. correspond to Compound Nos. in Table-1.)

[2] = test system: female adult Tetranychus urticae Koch; experiment: Miticidal effect on adult Tetranychus urticae Koch (Phaseolus leaf dip); conditions: leaf immersion, 25° C., five days after treatment
Description: The stem part of a Phaseolus seedling with one fresh first leaf remaining thereon was inserted in a test tube (a volume of 50 ml) containing water, where 15 female adult Tetranychus urticae Koch per one leaf was then inoculated. […] Five days after the treatment, the number of the female adult Tetranychus urticae Koch was counted on the Phaseolus leave, to calculate the adult death ratio (%) based on the above results. The results are shown in Table-6 (Compound Nos. in the table below correspond to Compound Nos. in Table-1).

SMILES | Control Ratio (%) (Erypsiphe graminis) | Control Ratio (%) (Puccinia recondita) | Adult death ratio (%) ([2]; 500 ppm) | further results
Cc1nn(C)c(C(=O)NC(C)c2ccc(-c3ccccc3)cc2)c1Br (stereo not shown) [Compound (III)] | 0 | 0 | 15 | inhibition at 500 ppm [1]: 20%
CCCCCc1ccc(-c2ccc(CNC(=O)c3cc(CC)nn3C)cc2)cc1 [Compound No. 11] |  |  | 100 | 
CCc1cc(C(=O)NCc2ccc(-c3ccc(OC(F)F)cc3)cc2)n(C)n1 [Compound No. 30, N-[4-(4-Difluoromethoxyphenyl)benzyl]-1-methyl-3-ethylpyrazole-5-carboxamide] | 100 | 100 | 100 | 
CCCCCCCc1ccc(-c2ccc(CNC(=O)c3cc(CC)nn3C)cc2)cc1 [compound 13] | 100 |  |  | 
CCc1cc(C(=O)NCc2ccc(-c3ccc(OC(C)C)cc3)cc2)n(C)n1 [compound 25] | 100 | 100 |  | 
Cn1nc2c(c1C(=O)NCc1ccc(-c3ccc(OC(F)(F)F)cc3)cc1)CCCC2 [compound 106] |  |  | 100 | 
CCc1nn(C)c(C(=O)NCc2ccc(C(C)(C)C)cc2)c1Cl [tebufenpyrade] | 77 |  |  | Adult death ratio (%) ([2]; 0.8 ppm): 0%; Adult death ratio (%) ([2]; 3.1 ppm): 80%; Adult death ratio (%) ([2]; 12.5 ppm): 100%
